What all share (format): biochemical
One assay deals with JAK1 (Homo sapiens (Human), UniProt P23458). The experiment in a line: JAK enzymatic assay (peptide mobility shift), JAK1. As to conditions: recombinant JAK1 20 nM, IRS-1 peptide, 240 minutes. Here is the method: (§1) Recombinant JAK1 (Catalog Number PV4775), JAK2 (Catalog Number PV4210) and JAK3 (Catalog Number PV3855) were purchased from (Invitrogen Corporation, Madison, Wis.). […] Adenosine 5′-triphosphate (ATP) was obtained from (Sigma Chemical Company, St. Louis, Mo.). […] Coating Reagent 3 was purchased from (Caliper Life Sciences, Hopkinton, Mass.).
(§2) Compounds were diluted serially in 100% dimethyl sulfoxide and tested in an 11 point dose response in duplicate or quadruplicate (200 nl of compound/DMSO was added per 10 L reaction). […] The assay was run for 240 minutes for JAK1, 150 minutes for JAK2, 90 minutes for JAK3 and 70 minutes for Tyk2. […] The plates were placed on a LabChip 3000 (LC3000) instrument from (Caliper Life Sciences) to measure the formation of phosphorylated peptide. Data was analyzed using Hits Well Analyzer Software from (Caliper Life Sciences) to obtain the amount of product formed.
(§3) Data was then imported into an internal application where each data point is expressed as % inhibition based on uninhibited and no enzyme controls. Dose-response data is then fit using a 4 parameter logistic equation (Equation 1) to determine an IC50.

Another assay concerns the target JAK3 (Homo sapiens (Human), UniProt P52333). Put plainly: JAK enzymatic assay (peptide mobility shift), JAK3. To be noted: recombinant JAK3 1 nM, JAKtide peptide, 90 minutes. Here is the method: as §1, §2, §3
The target of a further assay is JAK2 (Homo sapiens (Human), UniProt O60674). Put plainly: JAK enzymatic assay (peptide mobility shift), JAK2. As to conditions: recombinant JAK2 2 nM, JAKtide peptide, 150 minutes.
Source text: Recombinant JAK1 (Catalog Number PV4775), JAK2 (Catalog Number PV4210) and JAK3 (Catalog Number PV3855) were purchased from (Invitrogen Corporation, Madison, Wis.). Tyk2 (His-Tyk2 (888-1182, C936S, C1142S)) used in this study was expressed and purified at Pfizer Laboratories. Adenosine 5′-triphosphate (ATP) was obtained from (Sigma Chemical Company, St. Louis, Mo.). […] Coating Reagent 3 was purchased from (Caliper Life Sciences, Hopkinton, Mass.).
A peptide mobility shift assay was used to quantify the phosphorylation of the JAKtide (JAK2 and JAK3) or the IRS-1 peptide (JAK1 and Tyk2). Reactions were carried out in a 384-well plate (Matrical MP-101) in a 10 L total volume. […] Compounds were diluted serially in 100% dimethyl sulfoxide and tested in an 11 point dose response in duplicate or quadruplicate (200 nl of compound/DMSO was added per 10 L reaction). The reactions were initiated by the addition of enzyme to the final concentration of 2 nM JAK2, 1 nM JAK3, 12 nM Tyk2 or 20 nM JAK1. The assay was run for 240 minutes for JAK1, 150 minutes for JAK2, 90 minutes for JAK3 and 70 minutes for Tyk2. The assays were stopped at the specified times with 20 uL of 140 mM HEPES, 22.5 mM EDTA and 0.15% Coating Reagent 3. The plates were placed on a LabChip 3000 (LC3000) instrument from (Caliper Life Sciences) to measure the formation of phosphorylated peptide. Data was analyzed using Hits Well Analyzer Software from (Caliper Life Sciences) to obtain the amount of product formed.
as §3

JAK3, sequence (P52333 781-1124): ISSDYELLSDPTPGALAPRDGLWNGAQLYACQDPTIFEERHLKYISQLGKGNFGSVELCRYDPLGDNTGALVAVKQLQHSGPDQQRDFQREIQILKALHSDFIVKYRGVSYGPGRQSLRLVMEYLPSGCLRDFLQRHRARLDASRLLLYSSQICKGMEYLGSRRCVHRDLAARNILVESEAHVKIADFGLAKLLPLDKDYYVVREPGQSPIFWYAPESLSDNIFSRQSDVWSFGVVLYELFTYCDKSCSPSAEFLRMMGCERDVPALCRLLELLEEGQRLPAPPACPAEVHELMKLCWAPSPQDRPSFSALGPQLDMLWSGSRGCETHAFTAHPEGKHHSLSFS
JAK2, sequence (O60674 808-1132): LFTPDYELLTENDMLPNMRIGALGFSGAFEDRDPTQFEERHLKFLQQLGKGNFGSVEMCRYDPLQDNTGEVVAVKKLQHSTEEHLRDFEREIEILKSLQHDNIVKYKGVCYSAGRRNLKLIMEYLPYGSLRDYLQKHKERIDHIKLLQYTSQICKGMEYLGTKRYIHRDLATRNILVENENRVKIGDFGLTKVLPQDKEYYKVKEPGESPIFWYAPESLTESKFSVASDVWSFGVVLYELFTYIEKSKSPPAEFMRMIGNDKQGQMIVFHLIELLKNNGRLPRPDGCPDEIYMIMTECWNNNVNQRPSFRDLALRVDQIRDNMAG
JAK1, sequence (P23458 whole entry): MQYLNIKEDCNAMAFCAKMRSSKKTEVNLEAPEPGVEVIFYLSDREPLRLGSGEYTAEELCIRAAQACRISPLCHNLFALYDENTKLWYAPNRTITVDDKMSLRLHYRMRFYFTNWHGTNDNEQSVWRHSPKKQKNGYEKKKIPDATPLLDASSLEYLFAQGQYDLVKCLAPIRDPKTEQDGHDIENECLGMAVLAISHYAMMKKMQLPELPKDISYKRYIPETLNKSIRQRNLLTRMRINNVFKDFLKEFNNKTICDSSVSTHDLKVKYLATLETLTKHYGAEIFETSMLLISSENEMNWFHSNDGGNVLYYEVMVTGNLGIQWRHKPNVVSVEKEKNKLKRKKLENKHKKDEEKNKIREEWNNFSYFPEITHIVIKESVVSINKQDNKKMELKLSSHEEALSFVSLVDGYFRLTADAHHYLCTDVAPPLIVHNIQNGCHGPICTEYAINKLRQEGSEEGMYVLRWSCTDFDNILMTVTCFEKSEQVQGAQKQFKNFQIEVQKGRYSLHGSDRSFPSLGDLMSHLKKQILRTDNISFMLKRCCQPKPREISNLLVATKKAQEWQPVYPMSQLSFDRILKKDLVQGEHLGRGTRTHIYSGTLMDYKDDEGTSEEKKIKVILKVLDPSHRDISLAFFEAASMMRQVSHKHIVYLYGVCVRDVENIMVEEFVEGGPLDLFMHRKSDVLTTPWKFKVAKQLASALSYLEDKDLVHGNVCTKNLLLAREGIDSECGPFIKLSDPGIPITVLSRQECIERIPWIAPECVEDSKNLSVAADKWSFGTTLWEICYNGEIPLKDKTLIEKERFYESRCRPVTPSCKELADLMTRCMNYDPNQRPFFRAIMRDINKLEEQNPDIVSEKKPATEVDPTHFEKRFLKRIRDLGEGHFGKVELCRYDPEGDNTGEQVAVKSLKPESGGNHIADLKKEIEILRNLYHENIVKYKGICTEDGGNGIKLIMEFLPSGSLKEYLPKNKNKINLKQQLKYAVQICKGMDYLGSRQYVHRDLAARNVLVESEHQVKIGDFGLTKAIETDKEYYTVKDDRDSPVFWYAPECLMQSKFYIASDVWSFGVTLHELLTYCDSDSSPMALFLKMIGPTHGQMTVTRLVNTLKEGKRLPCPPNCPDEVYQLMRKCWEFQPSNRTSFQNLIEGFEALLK

`CN(c1ncnc2[nH]ccc12)[C@H]1CC[C@H](CS(=O)(=O)N2CCC(O)CC2)CC1` [Example 9, 1-[({trans-4-[methyl(7H-pyrrolo[2,3-d]pyrimidin-4-yl)amino]cyclohexyl}methyl)-sulfonyl]piperidin-4-ol]: the concentration for half-maximal inhibition (IC50) on JAK1 was found to be 9.18 nM; at JAK3, 342 nM; at JAK2, 34.2 nM.

For the compound `CN(c1ncnc2[nH]ccc12)[C@H]1CC[C@H](CS(=O)(=O)N2CCCC(F)C2)CC1` (stereo partly drawn) [Example 10, N-(trans-4-{[(3-fluoro-piperidin-1-yl)sulfonyl]-methyl}cyclohexyl)-N-methyl-7H-pyrrolo[2,3-d]-pyrimidin-4-amine], the concentration for half-maximal inhibition (IC50) at JAK1 came to 5.3 nM; on JAK3, 234 nM; at JAK2, 26.2 nM.

In the case of `CN(c1ncnc2[nH]ccc12)[C@H]1CC[C@H](CS(=O)(=O)N2CC[C@@H](O)[C@H](O)C2)CC1` [Example 12, (3R,4R)-1-[({trans-4-[methyl(7H-pyrrolo[2,3-d]pyrimidin-4-yl)amino]-cyclohexyl}methyl)sulfonyl]-piperidine-3,4-diol], the figures for the IC50 on JAK1, at JAK3 and on JAK2 were 4.28 nM, 119 nM and 11.8 nM, respectively.

Take `CN(c1ncnc2[nH]ccc12)[C@H]1CC[C@H](CS(=O)(=O)N2CC[C@@H](O)[C@@H](O)C2)CC1` [Example 13, (3S,4R)-1-[({trans-4-[methyl(7H-pyrrolo[2,3-d]pyrimidin-4-yl)amino]-cyclohexyl}methyl)sulfonyl]-piperidine-3,4-diol]: the half-maximal inhibitory concentration (IC50) on JAK1 amounted to 6.99 nM; at JAK3 it was 275 nM; on JAK2, 32 nM.

In the case of `CN(c1ncnc2[nH]ccc12)[C@H]1CC[C@H](CS(=O)(=O)N2CCC[C@H](O)C2)CC1` [Example 14, (3S)-1-[({trans-4-[methyl-(7H-pyrrolo[2,3-d]-pyrimidin-4-yl)amino]-cyclohexyl}methyl)sulfonyl]-piperidin-3-ol], the half-maximal inhibitory concentration (IC50) was 5.41 nM at JAK1, 169 nM at JAK3 and 16.2 nM at JAK2.

As for `CN(c1ncnc2[nH]ccc12)[C@H]1CC[C@H](CS(=O)(=O)N2CCCC(COc3ccc(F)cc3)C2)CC1` (stereo partly drawn) [Example 15, N-{trans-4-[({3-[(4-fluoro-phenoxy)methyl]piperidin-1-yl}sulfonyl)methyl]-cyclohexyl}-N-methyl-7H-pyrrolo[2,3-d]pyrimidin-4-amine], the IC50 at JAK1 came out at 5.91 nM; at JAK3 it was 10000 nM; at JAK2, 32 nM.

Take `CN(c1ncnc2[nH]ccc12)[C@H]1CC[C@H](CS(=O)(=O)N2CCCC(C(=O)O)C2)CC1` (stereo partly drawn) [Example 16, 1-[({trans-4-[methyl(7H-pyrrolo[2,3-d]pyrimidin-4-yl)amino]cyclohexyl}methyl)-sulfonyl]piperidine-3-carboxylic acid]: the results for the 50% inhibitory concentration (IC50) at JAK1, at JAK3 and at JAK2 were 2.13 nM, 74.3 nM and 7.71 nM, respectively.

For the compound `CCCS(=O)(=O)CC1CCCN(S(=O)(=O)C[C@H]2CC[C@H](N(C)c3ncnc4[nH]ccc34)CC2)C1` (stereo partly drawn) [Example 17, N-methyl-N-{trans-4-[({3-[(propylsulfonyl)methyl]-piperidin-1-yl}sulfonyl)-methyl]-cyclohexyl}-7H-pyrrolo[2,3-d]pyrimidin-4-amine], the figures for the IC50 at JAK1, on JAK3 and at JAK2 were 6.06 nM, 745 nM and 54.7 nM, respectively.

As for `Cc1nnc(C2CCCN(S(=O)(=O)C[C@H]3CC[C@H](N(C)c4ncnc5[nH]ccc45)CC3)C2)o1` (stereo partly drawn) [Example 18, N-methyl-N-[trans-4-({[3-(5-methyl-1,3,4-oxadiazol-2-yl)piperidin-1-yl]sulfonyl}methyl)-cyclohexyl]-7H-pyrrolo-[2,3-d]pyrimidin-4-amine], the half-inhibitory concentration (IC50) was determined as 9.75 nM on JAK1, 210 nM on JAK3 and 19.5 nM on JAK2.

One may read the IC50 as the concentration that inhibits the measured activity by half.

The record behind these values is patent US8633206B2, “Pyrrolo[2,3-D]pyrimidine compounds” (Pfizer Inc., priority 2009, dated 2014).
